# Patent US20240325548A1, “DYNAMIC BIOACTIVE SCAFFOLDS AND THERAPEUTIC USES THEREOF AFTER CNS INJURY” (Northwestern University, priority 2021, published 2024)
# Legend:
# [1] = Small- and wide-angle X-ray scattering (SAXS/WAXS) of PA nanofibers; assay type: physicochemical; details: PA nanofibers in solution
# Method: Small-angle X-ray scattering (SAXS), medium-angle X-ray scattering (MAXS), a wide-angle X-ray scattering (WAXS) experiments were performed at beamline 5-ID-D of the DuPont-Northwestern-Dow Collaborative Access Team (DND-CAT) Synchrotron Research Center at the Advanced Photon Source, Argonne National Laboratory. 100-150 μL of sample solution ([PA]=1-3 w/v % (˜6-10 mM) in aqueous NaCl and KCl ([NaCl]=150 mM and [KCl]=3 mM)) was introduced into capillary flow-cell with a fixed diameter and irradiated with X-ray for an exposure time of 0.5, 2, 3, or 10 s. Samples were oscillated at a rate of […] in the capillary with a syringe pump during sample measurement to prevent damage due to beam overexposure. Data was collected with an X-ray energy at 17 keV ([…]) with a triple-area detector system. The scattering intensity was recorded in the interval 0.002390<q<4.4578 Å^−1. The wave vector q is defined as =(4π/λ) sin(θ/2), where θ is the scattering angle. The acquired 2D scattering data were then reduced to 1D intensity vs. wavevector plots via azimuthal integration around the beam center in GSAS-II software. Background scattering patterns were obtained from samples containing 150 mM NaCl and 3 mM KCl. This background data was then subtracted from experimental data. All data was analyzed using the Irena software package running on IgorPro software.
# [2] = Diffusion ordered spectroscopy (DOSY), pulse-field gradient NMR; assay type: physicochemical
# Method: The diffusion coefficients were measured by pulse-field gradient NMR using the longitudinal eddy-current delay with bipolar pulse pairs pulse sequence with a maximum gradient strength of 53.5 G/cm and 16 values for the gradient strength. The peak intensity I was measured and fit to the Stejskal-Tanner equation: […]
# where I0 is the intensity in the absence of the gradient pulse, D is the diffusion coefficient, γ is the proton gyromagnetic ratio, g is the gradient strength, δ is the length of the pulse field gradient pulse (2 ms) and Δ is the diffusion delay (0.1 s).
# The […] was calculated from the Stokes-Einstein equation as: […]
# where kB is the Boltzmann constant, T is the temperature, and f is the viscosity.
# PA materials were mixed (90 mol % of IKVAV PA2+10 mol % FGF2 PAs) and sonicated as described above and then lyophilized. Samples were then dissolved in D2O water and solubilized in 1 equiv. NaOD at a concentration of 6 mM in standard 5 mm NMR tube with 0.25 mM sodium trimethylsilylpropanesulfonate (DSS) as a chemical shift reference and an intensity standard. […] Diffusion coefficients were measured using pulse-field gradient NMR using the stimulated echo pules sequence with a 2 ms gradient pulse and a 100 ms diffusion delay time using a maximum gradient strength of 53 G/cm.
# [3] = tested on: murine model of severe spinal cord injury (SCI); experiment: Angiogenesis at the site of SCI (DiI labelling, BrdU/CD31); assay type: in vivo, mouse
# Method: All experiments were conducted at the Simpson Querrey Institute at Northwestern University. 182 CD1 mice (Charles River) were subjects of this study (N=38 Sham, N=38 IKVAV PA2 alone, N=38 IKVAV PA2+FGF2 PA1, N=38 IKVAV PA2+FGF2 PA2, N=12 IKVAV PA1, N=12 Backbone PA, N=6 IKVAV PA4). The age of animals used in the study was in the range of 10-16 weeks. 8 independent in vivo experiments were carried out (injury+PA injection) and each of the 8 experiments had animals of the exact same age which were injected with at least the 4 main treatment groups: Sham, IKVAV PA2 alone, IKVAV PA2+FGF2 PA1, and IKVAV PA2+FGF2 PA2. Animals were anesthetized using 2.5% isoflurane gas with oxygen. […]
# PAs (dissolved in sterile NaCl 0.9% solution at 1 wt %) were injected 24 h after SCI using a glass capillary micropipette (Sutter Instruments, Novato, CA) (outer diameter, 100 m) coated with Sigmacote (Sigma-Aldrich) to reduce surface tension as described elsewhere (19). […] The micropipette was lowered to a depth of 750 m measured from the dorsal surface of the cord, and 4-6 μL of the diluted amphiphile solution was injected at 1 L/min. […]
# To assess in vitro tubulogenesis and in vivo angiogenesis, an ImageJ (Fiji) script was established to automatically calculate 1) area fraction of blood vessels, 2) blood vessels length, and 3) number of branches. Images were processed, binarized and analyzed. […]
SAXS slope in the Guinier region [1],Rh ([2]; calculated from Stokes-Einstein equation),"D ([2]; diffusion coefficient, DOSY)",Substance,newly formed blood vessels (number of BrdU+/CD31+ cells) ([3]; 12 weeks after injury),"vascular area fraction, vascular length, and branching ([3]; DiI-labelled vessels, transverse sections)"
−0.2,,,C16-G4E4GIKVAV [IKVAV PA5],,
−1.2,1.4 nm,1.6 ± 0.01 × 10^−10 m^2/s,C16-A2G2E4GIKVAV [IKVAV PA2],very modest but yet significantly increased,did not differ significantly
